The subject of one data set is platelet aggregation. Nature of the data set: In vivo antiplatelet activity after intravenous injection. The arrangement: species or system male New Zealand (NZ) white rabbits. Here is the method:
FIG. 9 presents platelet activities of male NZ white rabbits following IV injection of (S)-clopNPT as described in Example X.
The antiplatelet activity of the mixed disulfide conjugates of clopidogrel was determined using male NZ white rabbits (1.2-1.25 kg).
To prepare intravenous solution, (S)-clopNPT was dissolved at 0.7 mg/ml in a mixture of N,N-dimethylacetamide (DMA), polyethylene glycol (PEG) 400, and saline at 5, 15 and 80 (v/v) ratio. The male NZ white rabbits were dosed at 2 mg/kg of (S)-clopNPT using two different methods. In Method 1, the intravenous solution was first mixed with 5 mM glutathione. After an incubation of 15 min at 37° C. to activate (S)-clopNPT, the mixture was intravenously injected to the rabbit via the jugular vein. In Method 2, the male NZ white rabbit was fed with 5 ml of Readisorb glutathione solution once daily for three days to increase cellular glutathione concentrations. On the third day, (S)-clopNPT dissolved in DMA/PEG400/saline was injected intravenously to the Readisorb-treated rabbit. As a negative control, (S)-clopidogrel was dosed intravenously to a male NZ white rabbit at 2 mg/kg as well. Prior to and 1 and 2 hours after dosing (S)-clopNPT, whole blood was drawn from the carotid artery into a plastic syringe containing 3.7% sodium citrate as the anticoagulant (1:10 volume ratio of citrate to blood). A whole blood cell count was determined with a Medonic CA620 hematology analyzer (Clinical Diagnostic Solutions, Inc., Plantation, Fla., USA). Platelet-rich plasma (PRP), the supernatant present after centrifugation of whole blood at 100×g for 10 min, was diluted with platelet-poor plasma (PPP) to achieve a platelet count of approximately 300,000/μl. […] Platelet aggregation was assessed by established nephelometric methods with the use of a 4-channel aggregometer (BioData PAP-4; BioData Corp., Horsham, Pa., USA) by recording the increase in light transmission through a stirred suspension of PRP maintained at 37° C. […]

The nature of data set [1]: Rate of formation of the AM from 2-oxoclopidogrel by HLMs in the presence of various thiol reductants. In kind it is in vitro ADME, human. As to conditions: 0.3 mM thiol reductant; HLM, 0.1 mM 2-oxoclopidogrel. On the procedure: The AM was produced in 0.1 ml of 50 mM KP buffer (pH 7.4) containing 0.2 mg/ml HLM, 0.1 mM 2-oxoclopidogrel, the NADPH-regenerating system, and the thiol reductants. The concentrations of the thiol reductants were 1 mM except for CPT, DFT and NPT which were 0.3 mM each. The reaction was initiated by the addition of 5 units of G6PD and incubated at 37° C. for 20 min. The active metabolite was then quantitated as the MP derivative as described in Materials and Methods. The reported rates were averaged over three separate measurements.
To examine the effects of various thiol reductants on the formation of the active metabolite (AM), the rates at which the AM was produced were determined. Production of the AM was performed in 0.1 ml of 50 mM potassium phosphate (KPi) buffer (pH 7.4) containing 0.2 mg/mL HLM, 0.1 mM 2-oxoclopidogrel, the NADPH-regenerating system, and 1 mM of each of the thiol reductants except that 0.3 mM CPT, DFT, or NPT were used. The reaction was initiated by the addition of 5 units of glucose-6-phosphate dehydrogenase (G6PD) and incubated at 37° C. for 20 min. The AM was then derivatized with 4 mM MPB at room temperature for 10 min, followed by acidification with acetic acid to 3% (v/v). For quantification, 50 pmoles of (S)-clopidogrel was added into each reaction mixture as internal standard (IS). The derivatized AM (AM-MP) was quantitated using LC-MS/MS.
The MS analyses of the reaction mixture were performed on an ion-trap mass spectrometer (LCQ DecaXP, Thermo Fisher Scientific, Waltham, Mass.) as reported previously (Zhang et al., 2012). In brief, the metabolites of 2-oxoclopidogrel were separated on a reverse phase C18 column (2×100 mm, 3 μm, Phenemonex, Calif.) using a binary mobile phase at a flow rate of 0.2 ml/min. The temperature of the C18 column was maintained at 40° C. using a column heater (Restek Corporation, Lancaster, Pa.). […] Transitions from m/z 504→m/z 354 for the AM-MP and from m/z 322→m/z 212 for the IS were used to quantitate the amount of the AM-MP based on a calibration curve consisting of various concentrations of cis-clopidogrel-MP.

The nature of data set [2]: Formation of mixed disulfide conjugates of clopidogrel by HLMs (Km of thiol). The format is in vitro ADME, human. The settings on record: 2-oxoclopidogrel, read-out: Km for the formation of the mixed disulfide conjugate. Here is the method: The mixed disulfide conjugates were produced by HLMs for both structural and semi-quantitative analyses. Metabolism of 2-oxoclopidogrel was performed in 0.2 ml of 50 mM KP buffer (pH 7.4) as described above except that the concentration of HLMs was increased to 1 mg/ml. The reaction was incubated at 37° C. for 30 min and then quenched by the addition of 0.1 ml of 10% of acetic acid in acetonitrile. The quenched samples were centrifuged at 13,000×g for 10 min to remove the HLMs. Aliquots of 50 μl of the supernatant were loaded onto a mass spectrometer to analyze both the active and conjugate metabolites.
The MS analyses were performed as described above except that the MS detector was operated in the dependent scan mode. The precursor ions were scanned from m/z 300-700, whereas the MS^2 spectra were obtained from m/z 100 to 700 for the four most abundant ions. For semi-quantitative analysis, 50 pmoles of the IS was spiked into each sample that had been quenched. The relative amounts of the AM and respective conjugates were calculated as the AUC ratios of the metabolites to that of the IS.

The test system of data set [3] is platelets (P2Y12 receptor). Nature of the data set: Ex vivo anti-platelet activity of the mixed disulfide conjugates (ADP-induced aggregation, aggregometer). The format is cell-based, New Zealand white rabbits. As to conditions: free GSH 1 mM in PRP; 10 μM ADP. On the procedure: The mixed disulfide conjugates were prepared and purified from the reaction mixtures in the presence of 0.3 mM CPT and NPT, along with three control samples containing either 1 mM GSH, no thiol reductant or no G6PD. All samples were re-suspended in 0.5 ml PPP, some of which were treated to 1 mM GSH to release the AM. Platelet aggregation was initiated by the addition of 10 μM ADP and recorded with an aggregometer. The percentage of aggregation was normalized to that of PRP and averaged over four separate measurements. For details, see Materials and Methods. Legend: PRP, untreated platelet-rich plasma; GSH, 1 mM GSH in PRP; −G6PD, metabolites produced in the absence of G6PD; —SH, metabolites produced in the absence of any thiol reductants; GSH, metabolites produced in the presence of 1 mM GSH; CPT, metabolites produced in the presence of 0.3 mM CPT; CPT+GSH, metabolites produced in the presence of 0.3 mM CPT and then treated with 1 mM GSH; NPT, metabolites produced in the presence of 0.3 mM NPT; NPT+GSH, metabolites produced in the presence of 0.3 mM NPT and then treated with 1 mM GSH.
In order to generate sufficient quantities of the mixed disulfide conjugates, the metabolism of 2-oxoclopidogrel was performed in 2-ml reaction mixtures containing 1 mg/ml HLM, 0.1 mM 2-oxoclopidogrel, the NADPH-regenerating system, and 0.3 mM CPT or NPT or 1 mM GSH. The reaction was initiated by the addition of 10 units G6PD and incubated at 37° C. for 50 min. Two control samples were prepared in parallel. […] After an incubation of 50 min, the reaction mixtures were centrifuged at 13,000×g to remove the HLMs. The supernatants were loaded onto SPE C18 cartridges to enrich the mixed disulfide conjugates. After extensive washing with water to remove salts and other water-soluble metabolites, the conjugate samples were eluted with 2 ml of methanol. The methanolic fractions were dried using a Speedvac concentrator and the dried samples were then re-suspended in 1 ml of platelet-poor plasma (PPP). Prior to the anti-platelet activity assays, the re-suspended conjugates were divided into two equal volumes (0.5 ml each), one of which was treated with 1 mM GSH at 37° C. for 30 min to generate the AM. Both samples were then placed on ice until use.
The procedures used to determine ex vivo anti-platelet activity were previously reported (see, e.g., Abell L M and Liu E C (2011) J Pharm Exp Ther 339(2):589-596).
Male New Zealand white rabbits (2.2-2.9 kg) were used as blood donors. Whole blood was drawn from a central ear artery into a plastic syringe containing 3.7% sodium citrate as the anticoagulant (1:10 volume ratio of citrate to blood). A whole blood cell count was determined with a Medonic CA620 hematology analyzer (Clinical Diagnostic Solutions, Inc., Plantation, Fla., USA). Platelet-rich plasma (PRP), the supernatant present after centrifugation of whole blood at 100×g for 10 min, was diluted with PPP to achieve a platelet count of approximately 300,000/μl. Platelet-poor plasma was prepared by centrifuging the remaining blood at 1,500×g for 10 min and discarding the bottom cellular layer. The diluted PRP was divided into 0.5 ml samples, centrifuged again at 170×g for 10 mins, and the resulting supernatant was discarded. The platelet pellets were re-suspended in platelet-poor plasma containing the various chemical inhibitors prepared as described previously and incubated with gentle shaking at 37° C. for 60 min to modify the P2Y12 receptor. Ex vivo platelet aggregation was assessed by established nephelometric methods with the use of a 4-channel aggregometer (BioData PAP-4; BioData Corp., Horsham, Pa., USA) by recording the increase in light transmission through a stirred suspension of PRP maintained at 37° C. Platelet aggregation was induced with ADP (10 μM). A subaggregatory concentration of epinephrine (550 nM) was used to prime the platelets before addition of the agonist.

The conditions of data set [4]: read-out: Km for GSH; previously reported (Zhang 2012); cited from earlier work.

Like-named read-outs stand apart in the source and are kept apart here.

For the compound `COC(=O)C(c1ccccc1Cl)N1CCC(SSc2ncccc2[N+](=O)[O-])C(=CC(=O)O)C1` [(S)-clopNPT], in the data set with platelet aggregation (2 mg/kg IV, Readisorb-treated rabbit, within one hour of IV injection), the “inhibition of platelet activity” value is approximately 70%. The “inhibition of platelet aggregation” value with platelet aggregation (2 mg/kg IV, dosed with glutathione or to Readisorb glutathione treated rabbit) is “more than 50%”.
`Cc1cc(S)c(C)o1` [DFT, 2,5-dimethylfuran-3-thiol]: the “formation of the AM (in words)” value in data set [1] is reported as “No AM was observed”. In data set [2], the Michaelis constant (Km) (as a rule, the concentration of substrate that gives half-maximal velocity) amounted to 30 µM.
For the compound `O=[N+]([O-])c1cccnc1S` [NPT, 3-nitropyridine-2-thiol], the “formation of the AM (in words)” value in data set [1] is given as “No AM was observed”. Further, in data set [2], the Km came out at 51 µM.
Regarding `N[C@@H](CCC(=O)N[C@@H](CS)C(=O)NCC(=O)O)C(=O)O` [GSH, glutathione, reference compound], the “effect on platelet aggregation” value in data set [3] is listed as “no effect on platelet aggregation”. In addition, the Km in data set [4] is 300 µM.
Consider `Sc1ccc(Cl)nn1` [CPT, 6-chloropyridazine-3-thiol], for which, in data set [1], the “formation of the AM (in words)” value is on record as “No AM was observed”. In data set [2], the Km came out at 23 µM.
For the compound `COC(=O)[C@H](c1ccccc1Cl)N1CCc2sccc2C1` [(S)-clopidogrel, (+)-(S)-methyl 2-(2-chlorophenyl)-2-(6,7-dihdrothieno[3,2-c]pyridine-5(4H)-yl)acetate, reference compound], the “inhibition of platelet aggregation (in words)” value with platelet aggregation (2 mg/kg intravenously, blood 1 and 2 hours after dosing, 10 μM ADP) was “did not inhibit platelet aggregation”.

The values above are taken from patent US10196356B2, “Mixed disulfide conjugates of thienopyridine compounds and uses thereof” (The Regents of the University of Michigan, priority 2013, dated 2019).
